Experimental data from US6194383A, “Lipopeptides from actinoplanes sp. with pharmacological action, process for their production and the use thereof” (Hoechst Aktiengesellschaft, priority 1993, dated 2001).

Columns and labels:
Format in all cases: cell-based
Streptococcus pyogenes = assay: agar dilution test, MIC, vancomycin-resistant strains table; details: Muller-Hinton agar with 10% horse blood, 37° C., 24 hours
Procedure: (§1) The sensitivity of relevant organisms to the A 1437 lipopeptides is determined by an agar dilution test. The agar used is Muller-Hinton agar to which, in the case of S. pyogenes and the Enterococci, 10% horse blood is added. The antibiotic-containing plates are inoculated using a multichannel inoculator (5×10^4 cfu/inoculation site of a stationary culture of the particular strain). The MIC values (minimum inhibitory concentration) are read off at 37° C. The MIC is defined as the concentration of the antibiotic at which no visible growth of the organisms is detectable after incubation for 24 hours. The amphomycin used as control was obtained from Boehringer Mannheim (Germany). Amphomycin can be obtained as fine chemical therefrom.

Enterococcus faecium VR2 = assay: agar dilution test, MIC, vancomycin-resistant strains; details: Muller-Hinton agar with 10% horse blood, 37° C., 24 hours
Procedure: as §1

Enterococcus faecium VR1 = assay: as above; details: Muller-Hinton agar with 10% horse blood, 37° C., 24 hours
Procedure: as §1

relevant organisms = assay: agar dilution test, MIC, in vitro activity (AB spectrum); details: Muller-Hinton agar, 37° C., 24 hours
Procedure: as §1

[1] = 1st of 6 value columns, strain not given
[2] = 2nd of 6 value columns, strain head not printed
[3] = 3rd of 6 value columns, strain not given
[4] = 4th of 6 value columns, strain not given
[5] = 5th of 6 value columns, strain not given
[6] = 6th of 6 value columns, strain head not printed

| Substance | MIC, in vitro activity (vancomycin-resistant strains), concentration (Streptococcus pyogenes) | MIC, in vitro activity (vancomycin-resistant strains), concentration (Enterococcus faecium VR2) | MIC, in vitro activity (vancomycin-resistant strains), concentration (Enterococcus faecium VR1) | MIC, in vitro activity (AB spectrum), concentration (relevant organisms; [1]) | MIC, in vitro activity (AB spectrum), concentration (relevant organisms; [2]) | MIC, in vitro activity (AB spectrum), concentration (relevant organisms; [3]) | MIC, in vitro activity (AB spectrum), concentration (relevant organisms; [4]) | MIC, in vitro activity (AB spectrum), concentration (relevant organisms; [5]) | MIC, in vitro activity (AB spectrum), concentration (relevant organisms; [6]) |
| --- | --- | --- | --- | --- | --- | --- | --- | --- | --- |
| Amphomycin [reference compound] | 2 µg/mL | 4 µg/mL | 4 µg/mL | 0.195 µg/mL | 0.781 µg/mL | 0.391 µg/mL | 1.56 µg/mL | 0.391 µg/mL | 1.56 µg/mL |
| aiC13 -fatty acid-Asn-Dab-Pip-MeAsp-Asp-Gly-Asp-Gly-Dab-Val-Pro [A 1437 F] | 1 µg/mL | 4 µg/mL | 4 µg/mL | 0.098 µg/mL | 0.391 µg/mL | 0.195 µg/mL | 1.56 µg/mL | 0.781 µg/mL | 1.56 µg/mL |
| aiC15 -fatty acid-Asn-Dab-Pip-MeAsp-Asp-Gly-Asp-Gly-Dab-Val-Pro [A 1437 H] | 0.5 µg/mL | 1 µg/mL | 1 µg/mL | 0.049 µg/mL | 0.098 µg/mL | 0.049 µg/mL | 0.195 µg/mL | 0.049 µg/mL | 0.195 µg/mL |
| aiC15 -fatty acid-Asp-Dab-Pip-MeAsp-Asp-Gly-Asp-Gly-Dab-Val-Pro [A 1437 G] | 0.125 µg/mL | 0.25 µg/mL | 0.25 µg/mL | 0.098 µg/mL | 0.195 µg/mL | 0.049 µg/mL | 0.088 µg/mL | 0.025 µg/mL | 0.195 µg/mL |
| iC13 -fatty acid-Asp-Dab-Pip-MeAsp-Asp-Gly-Asp-Gly-Dab-Val-Pro [A 1437 A] |  |  |  | 0.391 µg/mL | 0.781 µg/mL | 0.391 µg/mL | 1.56 µg/mL | 0.391 µg/mL | 3.13 µg/mL |
| iC14 -fatty acid-Asn-Dab-Pip-MeAsp-Asp-Gly-Asp-Gly-Dab-Val-Pro [A 1437 D] | 1 µg/mL | 2 µg/mL | 2 µg/mL | 0.049 µg/mL | 0.195 µg/mL | 0.049 µg/mL | 0.781 µg/mL | 0.391 µg/mL | 0.781 µg/mL |
| iC14 -fatty acid-Asp-Dab-Pip-MeAsp-Asp-Gly-Asp-Gly-Dab-Val-Pro [A 1437 B] | 0.5 µg/mL | 1 µg/mL | 1 µg/mL | 0.098 µg/mL | 0.195 µg/mL | 0.098 µg/mL | 0.195 µg/mL | 0.049 µg/mL | 0.391 µg/mL |
| ic13 -fatty acid-Asn-Dab-Pip-MeAsp-Asp-Gly-Asp-Gly-Dab-Val-Pro [A 1437 C] | 4 µg/mL | 4 µg/mL | 4 µg/mL | 0.195 µg/mL | 0.781 µg/mL | 0.391 µg/mL | 3.13 µg/mL | 0.781 µg/mL | 3.13 µg/mL |
